Measurements: US20100138935A1, “Detection of cellular stress” (priority 2004, published 2010)
Read-outs that look alike come from different tables or passages of the source.

What was measured:
[1] = tested on: HO-1-LacZ (HOZ) transgene; experiment: LacZ transgene expression in HO-1-LacZ (HOZ) reporter mice; assay type: in vivo, mouse; conditions: female HOZ mice, 13 mg/kg i.p. in isotonic saline, 8 hours or 24 hours
Description: (§1) Each test compound was dissolved in the appropriate vehicle solution and administered by intraperitoneal injection (i.p.) at a dose volume of 10 ml/kg. Wherever possible, both naive (untreated) and vehicle-treated controls were used. If a test item whose toxicity in the mouse is poorly characterised was to be used, a dose-ranging experiment was conducted prior to the main experiment. The test item was administered to a single mouse which was monitored for any adverse effects 6-8 hours and 24 hours later. If the single dose ranging mouse tolerated the treatment, the remaining mice were administered the test item according to the protocol.
(§2) Two slices of tissue (˜2 mm thickness) were removed for histochemical analysis of LacZ expression according to methods described below.
(§3) Tissues were washed with PBS and prefixed in 0.2% glutaraldehyde in PBS containing 0.1M MgCl2 and 5 mM EDTA, pH 7.3, for 4 hours at 4° C. on a shaker. After fixation, the tissues were transferred to 20% Sucrose solution and dehydrated overnight at 4° C. The next day they were embedded in cryo-M-bed medium on cork discs and lowered slowly into liquid nitrogen then transferred to −80° C. until sections were required.
(§4) Cryostat sample and chamber temperatures were set to −30° C. The sample to be sectioned was placed in the cryostat one hour prior to sectioning to allow equilibration at the appropriate temperature. Frozen sections (10 μm) were cut and placed on aminopropyltriethoxysilane (APES) coated slides.
(§5) Prior to staining, sections were incubated in 0.2% glutaraldehyde (as above) for 10 minutes at room temperature then washed twice (5 min each) in PBS containing 2 mM MgCl2, 0.01% sodium deoxycholate and 0.02% % Nonidet-P40. Sections were then […] the same wash solution containing 1 mg/ml X-gal, 5 mM potassium ferrocyanide and 5 mM potassium ferricyanide overnight at 37° C. then washed twice in PBS for 5 min, allowed to air dry and mounted in aqueous mounting medium (Hydromount). Slides were evaluated and photographed. • Frozen Method 2
Tissues were excised, immediately placed into chilled 4% paraformaldehyde containing 0.1% glutaraldehyde and 2 mM MgCl2 in PBS, and fixed in the above solution for 3 hours at 2-8° C. with gentle shaking. Fixed tissues were washed at 2-8° C. for 3×5 minutes with chilled PBS containing 2 mM MgCl2 and dehydrated overnight at 2-8° C. in PBS containing 2 mM MgCl2 and 30% (w/v) sucrose overnight The next day dehydrated tissues were embedded in OCT embedding medium using an isopentane/dry ice bath. Embedded tissues were stored at −70° C. until they could be cryosectioned.
Frozen sections were washed three times for 5 minutes in PBS containing 2 mM MgCl2 at 2-8° C. then 3×30 min in detergent wash (PBS containing 2 mM MgCl2 0.01% Nonidet P40 and 0.1% Sodium Deoxycholate) at 2-8° C. They were then stained overnight in PBS containing 2 mM MgCl2, 0.02% Nonidet P40, 0.1% Sodium Deoxycholate, 5 mM Potassium ferrocyanide, 5 mM Potassium ferricyanide, and 0.1% X-gal at 37° C. The next day, the slides were washed three times for 5 minutes in PBS containing 2 mM MgCl2 followed by three times for 5 minutes in PBS at room temperature. They were equilibrated with 100% ethanol (5 min) and counterstained with Eosin for 1 min at room temperature. Following dehydration and mounting they were evaluated and photographed. • Whole Mount Method
Tissue specimens that had been prefixed in fresh 4% paraformaldehyde were stained immediately using the procedure for “Whole Mount X-Gal Histochemistry of Transgenic Animal Tissues” (see http://www.rodentia.com/wmc/docs/lacZ bible.html), summarised below) was followed, and the post-fixed tissues were transferred to 70% (v/v) ethanol.
Following fixation for one hour in 4% paraformaldehyde, tissues were rinsed three times, for thirty minutes each, with rinse buffer (100 mM sodium phosphate (pH 7.3), 2 mM MgCl2, 0.01% sodium deoxycholate, 0.02% NP-40) at room temperature. […]

HOZ mice [2] = experiment: BUN as a marker of nephrotoxicity in HOZ mice; assay type: in vivo, mouse; conditions: female, 13 mg/kg
Description: (§6) Terminal blood samples were taken by cardiac puncture into lithium/heparin-coated tubes for preparation of plasma. Tissues, as defined in each protocol, were routinely dissected as follows:
(§7) Following removal into tubes suitable for plasma preparation, venous blood samples were mixed on a roller for 10 minutes then cooled on ice. Red blood cells were removed by centrifugation at 2,000 rpm for 10 minutes at 8-10° C. The supernatant (plasma) was transferred to a second tube and stored at −70° C. until required for analysis.
(§8) Plasma samples were analysed for appropriate analytes on a Roche autoanalyser (Cobas Integra 400) according to the manufacturer's instructions. The routine markers measured included: (for liver damage) plasma alanine aminotransferase (ALT), aspartate aminotransferase (AST) and alkaline phosphatase (ALP) and (for kidney damage) plasma creatinine and blood urea nitrogen (BUN).
The increase in BUN was 6-fold at 8 hours and 44-fold after 24 hours.

HOZ mice [3] = experiment: Plasma AST as a marker of hepatotoxicity in HOZ mice; assay type: in vivo, mouse; conditions: female, 13 mg/kg
Description: as §6, §7, §8
Two plasma enzyme markers, ALT and AST, were used as markers of hepatotoxicity in HOZ mice treated with cadmium chloride or sodium arsenite. […]

HOZ mice [4] = experiment: Plasma ALT as a marker of hepatotoxicity in HOZ mice; assay type: in vivo, mouse; conditions: 13 mg/kg; for Plasma ALT: female
Description: as §6, §7, §8
Two plasma enzyme markers, ALT and AST, were used as markers of hepatotoxicity in HOZ mice treated with cadmium chloride or sodium arsenite. The results of this analysis for HOZ mice treated with 10 mg/kg cadmium chloride are shown in Table 1 and for HOZ mice treated with 2-8 mg/kg cadmium chloride or 13 mg/kg sodium arsenite in Tables 2 and 3.

p21-LacZ (WAZ) transgene = assay type: in vivo, mouse
Description: as §1, §2
Mouse brains were dissected so as to reveal the dentate gyrus as fully as possible. In the case of the kidneys, one kidney was cut in longitudinal section and the other in transverse section.
as §3, §4, §5
In experiments on WAZ44 mice, single doses of etoposide (of up to 40 mg/kg) were administered i.p. Animals were killed after 24 hours and tissues fixed and stained for LacZ expression.
Acrylamide, at a total dose of 150 mg/kg, induces neuropathy manifesting as partial paralysis approximately 7 days after the start of treatment. The dose may be administered as a single injection or divided; however, the effect depends upon the total dose, and since a single dose of 150 mg/kg is likely to be acutely toxic, a five-day coursed of injections of 30 mg/kg is preferred. Acrylamide intoxication is associated with both central and peripheral effects; the central effects include behavioural changes (increased milk-licking) which occur within two days of dosing, preceding peripheral changes such as reduced hind-limb grip and reduced locomotor activity by up to three weeks (Teal and Evans, 1982). In experiments on WAZ44 mice, five doses of acrylamide (30 mg/kg) were administered i.p.
A frozen section from the brain of an acrylamide-treated WAZ44 mouse was prepared and stained using Frozen Method 1. A dissecting microscope was used to view the slides and generate photomicrographs (a) transverse section of whole brain, original magnification ×10; (b) dentate gyrus and hippocampus, original magnification ×25 (c) cortex, original magnification ×63.
WAZ mice received single i.p. injections of etoposide (40 mg/kg); mercuric chloride (HgCl2, 8.5 mg/kg); lipopolysaccharide (LPS, 1.5 mg/kg) or paracetamol (300 mg/kg). WAZ mice received a single i.p. injection of each compound at a single dose level (see FIG. 5). Twenty-four hours later, the mice were killed and the brains sectioned and stained for LacZ expression.

[5] = dissolved in DMSO, injected intra-peritoneally; cited from earlier work
[6] = tested on: HO-1-LacZ reporter transgene in HEK293 cells; experiment: Transient transfection of HO-1-LacZ reporter construct into HEK293 cells, induction with haemin; assay type: cell-based, mouse
Excerpt: We have used RedET recombination cloning (Zhang et al., 2000) to produce a HO-1-LacZ reporter transgene. A LacZ-SV40polyA minigene was engineered to contain homologous regions to exons 1 and 2 of the HO-1 gene. This minigene cassette also contains a bacterial Amp gene, at the 3′-end, which was used as a selectable marker during cloning. The minigene was then introduced, by homologous recombination, into a BAC clone containing the mouse HO-1 locus (clone RPCI-23 290L07, HGMP Resource Centre) substituting for the endogenous HO-1 exon1 and intron1 sequences. Thus, the HO-1 promoter would express LacZ from the ATG start codon, in place of the HO-1 protein. The correct position of the LacZ-SV40polyA minigene was confirmed by sequencing both the 5′- and 3′-junction regions. The HO-1 reporter locus, containing most of the HO-1 gene together with 16.5 kb of upstream promoter and 8 kb of 3′ sequence, was then recombined out from the BAC clone into the pACYC low copy number plasmid backbone.

[7] = WAZ mice, single i.p. injection (etoposide 40 mg/kg; HgCl2 8.5 mg/kg; LPS 1.5 mg/kg; paracetamol 300 mg/kg), 24 hours

Compound: O=[As]O [Sodium Arsenite, sodium arsenite]
- HOZ transgene expression in liver [1]: expression of the HOZ transgene at both time points
- BUN (HOZ mice [2]; 8 hours): 5.62
- BUN (HOZ mice [2]; 24 hours): 3.50
- Plasma AST (HOZ mice [3]; 8 hours): 107.3 u/L
- Plasma AST (HOZ mice [3]; 24 hours): 67.8 u/L
- hepatotoxic response (plasma ALT, AST) (HOZ mice [4]; HOZ mice): did not exhibit a hepatotoxic response
- Plasma ALT (HOZ mice [4]; 8 hours): 43.0 u/L
- Plasma ALT (HOZ mice [4]; 24 hours): 26.7 u/L

Compound: COc1cc([C@@H]2c3cc4c(cc3[C@@H](O[C@@H]3O[C@@H]5CO[C@@H](C)O[C@H]5[C@H](O)[C@H]3O)[C@H]3COC(=O)[C@H]23)OCO4)cc(OC)c1O [etoposide]
- LacZ transgene expression in tissues (p21-LacZ (WAZ) transgene; WAZ44 mice, single doses of up to 40 mg/kg i.p., killed after 24 hours): significant expression in the spleen, the thymus and in some regions of the brain
- expression of the WAZ transgene in the brain (p21-LacZ (WAZ) transgene; mouse, in vivo): high levels of expression
- pattern of WAZ transgene induction in the brain (p21-LacZ (WAZ) transgene; mouse, in vivo): induced expression in the same cells within the various regions in the brain
- LD50 [5]: 40 mg/kg

Compound: C=CC1=C(C)c2cc3[n-]c(cc4nc(cc5[n-]c(cc1n2)c(C)c5C=C)C(C)=C4CCC(=O)O)c(CCC(=O)O)c3C.[Cl-].[Fe+3] [haemin]
- increase in the LacZ labelling index over uninduced control cells [6]: 11 fold

Compound: [Cl][Hg][Cl] [mercuric chloride]
- expression of the WAZ transgene in the brain (p21-LacZ (WAZ) transgene; [7]): high levels of expression
- pattern of WAZ transgene induction in the brain (p21-LacZ (WAZ) transgene; [7]): induced expression in the same cells within the various regions in the brain

Compound: CC(=O)Nc1ccc(O)cc1 [paracetamol]
- expression of the WAZ transgene in the brain (p21-LacZ (WAZ) transgene; mouse, in vivo): high levels of expression
- pattern of WAZ transgene induction in the brain (p21-LacZ (WAZ) transgene; mouse, in vivo): distinct pattern of induction within the hippocampus, cerebellum and cortex

Compound: lipopolysaccharide [LPS]
- expression of the WAZ transgene in the brain (p21-LacZ (WAZ) transgene; [7]): high levels of expression
- pattern of WAZ transgene induction in the brain (p21-LacZ (WAZ) transgene; [7]): induced expression in the same cells within the various regions in the brain
